Laboratory results taken from patent publication US8952024B2, “Herbicidal pyrimidone derivatives” (E I du Pont de Nemours and Company, priority 2009, dated 2015).

How the values were obtained:
Assay in all cases: Test C plant response
Format in all cases: in vivo
[1] = system: oilseed rape (Brassica napus); settings: Postemergence, scale 0 to 100
Source text: (§1) Seeds of plant species selected from bluegrass (annual bluegrass, Poa annua), blackgrass (Alopecurus myosuroides), canarygrass (Phalaris minor), chickweed (common chickweed, Stellaria media), galium (catchweed bedstraw, Galium aparine), bromegrass (downy bromegrass, Bromus tectorum), field poppy (Papaver rhoeas), field violet (Viola arvensis), green foxtail (Setaria viridis), deadnettle (henbit deadnettle, Lamium amplexicaule), Italian ryegrass (Lolium multiflorum), kochia (Kochia scoparia), lambsquarters (Chenopodium album), oilseed rape (Brassica napus), pigweed (Amaranthus retroflexus), Russian thistle (Salsola iberica), spring barley (Hordeum vulgare), spring wheat (Triticum aestivum), buckwheat (wild buckwheat, Polygonum convolvulus), wild mustard (Sinapis arvensis), wild oat (Avena fatua), wild radish (Raphanus raphanistrum), windgrass (Apera spica-venti), winter barley (Hordeum vulgare), and winter wheat (Triticum aestivum) were planted and treated postemergence with test chemicals formulated in a non-phytotoxic solvent mixture which included a surfactant. Plants ranged in height from 2 to 18 cm (1- to 4-leaf stage).
(§2) Treated plants and controls were maintained in a controlled growth environment for 14 days after which time all test plants were visually evaluated and compared to controls. Plant response ratings, summarized in Table C, are based on a scale of 0 to 100 where 0 is no effect and 100 is complete control. A dash (-) response means no test result.

[2] = system: winter barley (Hordeum vulgare); settings: Postemergence, scale 0 to 100
Source text: as §1, §2

[3] = system: Russian thistle (Salsola iberica); settings: Postemergence, scale 0 to 100
Source text: as §1, §2

[4] = system: spring barley (Hordeum vulgare); settings: Postemergence, scale 0 to 100
Source text: as §1, §2

[5] = system: wild mustard (Sinapis arvensis); settings: Postemergence, scale 0 to 100
Source text: as §1, §2

[6] = system: lambsquarters (Chenopodium album); settings: Postemergence, scale 0 to 100
Source text: as §1, §2

[7] = system: deadnettle (henbit deadnettle, Lamium amplexicaule); settings: Postemergence, scale 0 to 100
Source text: as §1, §2

kochia (Kochia scoparia) [8] = settings: Postemergence, scale 0 to 100
Source text: as §1, §2

[9] = system: galium (catchweed bedstraw, Galium aparine); settings: Postemergence, scale 0 to 100
Source text: as §1, §2

[10] = system: windgrass (Apera spica-venti); settings: Postemergence, scale 0 to 100
Source text: as §1, §2

[11] = system: spring wheat (Triticum aestivum); settings: Postemergence, scale 0 to 100
Source text: as §1, §2

[12] = system: blackgrass (Alopecurus myosuroides); settings: Postemergence, scale 0 to 100
Source text: as §1, §2

wild oat (Avena fatua) = settings: Postemergence, scale 0 to 100
Source text: as §1, §2

[13] = system: winter wheat (Triticum aestivum); settings: Postemergence, scale 0 to 100
Source text: as §1, §2

[14] = system: Italian ryegrass (Lolium multiflorum); settings: Postemergence, scale 0 to 100
Source text: as §1, §2

[15] = system: green foxtail (Setaria viridis); settings: Postemergence, scale 0 to 100
Source text: as §1, §2

[16] = system: buckwheat (wild buckwheat, Polygonum convolvulus); settings: Postemergence, scale 0 to 100
Source text: as §1, §2

[17] = system: bluegrass (annual bluegrass, Poa annua); settings: Postemergence, scale 0 to 100
Source text: as §1, §2

[18] = system: wild mustard (Sinapis arvensis); settings: Preemergence, scale 0 to 100
[19] = system: chickweed (common chickweed, Stellaria media); settings: Preemergence, scale 0 to 100
[20] = system: oilseed rape (Brassica napus); settings: Preemergence, scale 0 to 100
[21] = system: winter barley (Hordeum vulgare); settings: Preemergence, scale 0 to 100
kochia (Kochia scoparia) [22] = settings: Preemergence, scale 0 to 100

O=C1CCCC(O)=C1C(=O)c1cnc(-c2ccccc2)n(-c2ccccc2)c1=O [Compound 2, 5-[(2-hydroxy-6-oxo-1-cyclohexen-1-yl)carbonyl]-2,3-diphenyl-4(3H)-pyrimidinone]
70: Plant response rating: Oilseed Rape ([1]; 62 g ai/ha) | Plant response rating: Russian Thistle ([3]; 62 g ai/ha) | Plant response rating: Lambsquarters ([6]; 16 g ai/ha) | Plant response rating: Kochia (kochia (Kochia scoparia) [8]; 31 g ai/ha) | Plant response rating: Galium ([9]; 125 g ai/ha) | Plant response rating: Buckwheat, Wild ([16]; 125 g ai/ha)
35: Plant response rating: Russian Thistle ([3]; 16 g ai/ha) | Plant response rating: Mustard, Wild ([18]; 125 g ai/ha) | Plant response rating: Oilseed Rape ([20]; 62 g ai/ha)
15: Plant response rating: Oat, Wild (wild oat (Avena fatua); 31 g ai/ha) | Plant response rating: Ryegrass, Italian ([14]; 62 g ai/ha) | Plant response rating: Buckwheat, Wild ([16]; 16 g ai/ha)
10: Plant response rating: Barley, Winter ([2]; 62 g ai/ha)
80: Plant response rating: Lambsquarters ([6]; 62 g ai/ha)
50: Plant response rating: Galium ([9]; 62 g ai/ha)
30: Plant response rating: Barley, Winter ([2]; 125 g ai/ha) | Plant response rating: Galium ([9]; 31 g ai/ha) | Plant response rating: Blackgrass ([12]; 125 g ai/ha) | Plant response rating: Wheat, Winter ([13]; 125 g ai/ha) | Plant response rating: Ryegrass, Italian ([14]; 125 g ai/ha) | Plant response rating: Kochia (kochia (Kochia scoparia) [22]; 62 g ai/ha)
90: Plant response rating: Oilseed Rape ([1]; 125 g ai/ha) | Plant response rating: Kochia (kochia (Kochia scoparia) [22]; 125 g ai/ha)
65: Plant response rating: Kochia (kochia (Kochia scoparia) [8]; 16 g ai/ha) | Plant response rating: Foxtail, Green ([15]; 16 g ai/ha) | Plant response rating: Bluegrass ([17]; 125 g ai/ha) | Plant response rating: Oilseed Rape ([20]; 125 g ai/ha)
60: Plant response rating: Oilseed Rape ([1]; 16 g ai/ha) | Plant response rating: Oilseed Rape ([1]; 31 g ai/ha) | Plant response rating: Russian Thistle ([3]; 31 g ai/ha)
25: Plant response rating: Windgrass ([10]; 62 g ai/ha) | Plant response rating: Oat, Wild (wild oat (Avena fatua); 62 g ai/ha) | Plant response rating: Oat, Wild (wild oat (Avena fatua); 125 g ai/ha) | Plant response rating: Bluegrass ([17]; 31 g ai/ha) | Plant response rating: Bluegrass ([17]; 62 g ai/ha)
100: Plant response rating: Deadnettle ([7]; 62 g ai/ha) | Plant response rating: Deadnettle ([7]; 125 g ai/ha)
95: Plant response rating: Russian Thistle ([3]; 125 g ai/ha) | Plant response rating: Deadnettle ([7]; 16 g ai/ha) | Plant response rating: Deadnettle ([7]; 31 g ai/ha) | Plant response rating: Foxtail, Green ([15]; 62 g ai/ha) | Plant response rating: Foxtail, Green ([15]; 125 g ai/ha)
40: Plant response rating: Windgrass ([10]; 125 g ai/ha) | Plant response rating: Buckwheat, Wild ([16]; 62 g ai/ha)
75: Plant response rating: Lambsquarters ([6]; 31 g ai/ha) | Plant response rating: Kochia (kochia (Kochia scoparia) [8]; 62 g ai/ha) | Plant response rating: Foxtail, Green ([15]; 31 g ai/ha) | Plant response rating: Chickweed ([19]; 16 g ai/ha)
98: Plant response rating: Mustard, Wild ([5]; 16 g ai/ha) | Plant response rating: Mustard, Wild ([5]; 31 g ai/ha) | Plant response rating: Mustard, Wild ([5]; 62 g ai/ha) | Plant response rating: Lambsquarters ([6]; 125 g ai/ha) | Plant response rating: Kochia (kochia (Kochia scoparia) [8]; 125 g ai/ha) | Plant response rating: Chickweed ([19]; 62 g ai/ha) | Plant response rating: Chickweed ([19]; 125 g ai/ha) | Plant response rating: Chickweed ([19]; 31 g ai/ha)
5: Plant response rating: Galium ([9]; 16 g ai/ha) | Plant response rating: Windgrass ([10]; 16 g ai/ha) | Plant response rating: Mustard, Wild ([18]; 62 g ai/ha) | Plant response rating: Kochia (kochia (Kochia scoparia) [22]; 16 g ai/ha) | Plant response rating: Kochia (kochia (Kochia scoparia) [22]; 31 g ai/ha)
0: Plant response rating: Barley, Winter ([2]; 16 g ai/ha) | Plant response rating: Barley, Winter ([2]; 31 g ai/ha) | Plant response rating: Barley, Spring ([4]; 16 g ai/ha) | Plant response rating: Barley, Spring ([4]; 31 g ai/ha) | Plant response rating: Barley, Spring ([4]; 62 g ai/ha) | Plant response rating: Barley, Spring ([4]; 125 g ai/ha) | Plant response rating: Wheat, Spring ([11]; 16 g ai/ha) | Plant response rating: Wheat, Spring ([11]; 31 g ai/ha) | Plant response rating: Wheat, Spring ([11]; 62 g ai/ha) | Plant response rating: Wheat, Spring ([11]; 125 g ai/ha) | Plant response rating: Blackgrass ([12]; 16 g ai/ha) | Plant response rating: Blackgrass ([12]; 31 g ai/ha) | Plant response rating: Oat, Wild (wild oat (Avena fatua); 16 g ai/ha) | Plant response rating: Wheat, Winter ([13]; 16 g ai/ha) | Plant response rating: Wheat, Winter ([13]; 31 g ai/ha) | Plant response rating: Wheat, Winter ([13]; 62 g ai/ha) | Plant response rating: Ryegrass, Italian ([14]; 16 g ai/ha) | Plant response rating: Ryegrass, Italian ([14]; 31 g ai/ha) | Plant response rating: Bluegrass ([17]; 16 g ai/ha) | Plant response rating: Mustard, Wild ([18]; 16 g ai/ha) | Plant response rating: Mustard, Wild ([18]; 31 g ai/ha) | Plant response rating: Oilseed Rape ([20]; 16 g ai/ha) | Plant response rating: Barley, Winter ([21]; 62 g ai/ha) | Plant response rating: Barley, Winter ([21]; 125 g ai/ha) | Plant response rating: Barley, Winter ([21]; 16 g ai/ha) | Plant response rating: Barley, Winter ([21]; 31 g ai/ha)
20: Plant response rating: Windgrass ([10]; 31 g ai/ha) | Plant response rating: Blackgrass ([12]; 62 g ai/ha) | Plant response rating: Buckwheat, Wild ([16]; 31 g ai/ha) | Plant response rating: Oilseed Rape ([20]; 31 g ai/ha)
